What was measured:
[1] = system: patients with symptomatic heart failure; assay: Human clinical trial: incidence of adverse events, intent-to-treat cohort; format: in vivo
[2] = system: myocardial fibrosis in animal models; settings: cited from earlier work
[3] = system: patients with symptomatic heart failure; assay: Human clinical trial: hospitalizations and deaths; format: in vivo
Text: A breakdown of the hospitalizations is as follows:

[4] = system: patients with symptomatic heart failure; assay: Human clinical trial: change in weight and vital signs; format: in vivo
Text: Laboratory Measurements: The following information was obtained from each patient at baseline:
(§1) Cardiac assessments that included blood pressure, pulse, sodium retention score (general assessment of a patient's edematous state was derived from the summation of scores obtained from Table I), NYHA classification, and
All statistical methods were two-sided.

refractory CHF = settings: 50 mg/day to 100 mg/day (average 73 mg/day) in combination with captopril; cited from earlier work
[5] = system: patients with symptomatic heart failure; assay: Human clinical trial: cardiac assessments and changes in patient therapy; format: in vivo
Text: as §1
All statistical methods were two-sided.

[6] = system: patients afflicted with congestive heart failure; settings: 100 mg/day coadministered with an ACE inhibitor; cited from earlier work
[7] = system: patients with symptomatic heart failure; assay: Human clinical trial: clinical laboratory values (neurohormones, hematology, biochemistry); settings: for PRA (plasma renin activity), Week 12 mean change: Week 12 vs baseline, with stable ACE inhibitor and loop diuretic
[8] = system: patients with symptomatic heart failure; assay: Human clinical trial: incidence and predictors of hyperkalemia (Cox regression); settings: type of ACE-I as predictor; step-wise Cox regression; patients on spironolactone or placebo
Text: In this, analysis, the risk ratio can be thought of as the probability that the patient with the risk factor will develop hyperkalemia, relative to the probability that a patient without the risk factor will develop it.

CC(=O)S[C@@H]1CC2=CC(=O)CC[C@]2(C)[C@H]2CC[C@@]3(C)[C@@H](CC[C@@]34CCC(=O)O4)[C@H]12 [Spironolactone, 17-hydroxy-7α-mercapto-3-oxo-17α-pregn-4-ene-21-carboxylic acid γ-lactone acetate]
Incidence of URT infection ([1]; 12.5 mg): 4.9 Percentage of Patients
Incidence of abdominal pain ([1]; 12.5 mg): 7.3 Percentage of Patients
Incidence of angina pectoris ([1]; 12.5 mg): 19.5 Percentage of Patients
Incidence of arthralgia ([1]; 12.5 mg): 4.9 Percentage of Patients
Incidence of coughing ([1]; 12.5 mg): 4.9 Percentage of Patients
Incidence of diarrhea ([1]; 12.5 mg): 4.9 Percentage of Patients
Incidence of dizziness ([1]; 12.5 mg): 12.2 Percentage of Patients
Incidence of dyspnea ([1]; 12.5 mg): 22.0 Percentage of Patients
Incidence of fatigue ([1]; 12.5 mg): 12.2 Percentage of Patients
Incidence of headache ([1]; 12.5 mg): 9.8 Percentage of Patients
Incidence of hyperkalemia (adverse event) ([1]; 12.5 mg): 2.4 Percentage of Patients
Incidence of nausea ([1]; 12.5 mg): 2.4 Percentage of Patients
Incidence of URT infection ([1]; 25 mg): 11.1 Percentage of Patients
Incidence of abdominal pain ([1]; 25 mg): 8.9 Percentage of Patients
Incidence of angina pectoris ([1]; 25 mg): 20.0 Percentage of Patients
Incidence of arthralgia ([1]; 25 mg): 4.4 Percentage of Patients
Incidence of coughing ([1]; 25 mg): 2.2 Percentage of Patients
Incidence of diarrhea ([1]; 25 mg): 22.2 Percentage of Patients
Incidence of dizziness ([1]; 25 mg): 13.3 Percentage of Patients
Incidence of dyspnea ([1]; 25 mg): 15.6 Percentage of Patients
Incidence of fatigue ([1]; 25 mg): 13.3 Percentage of Patients
Incidence of headache ([1]; 25 mg): 2.2 Percentage of Patients
Incidence of hyperkalemia (adverse event) ([1]; 25 mg): 8.9 Percentage of Patients
Incidence of nausea ([1]; 25 mg): 17.8 Percentage of Patients
Incidence of URT infection ([1]; 50 mg): 8.7 Percentage of Patients
Incidence of abdominal pain ([1]; 50 mg): 13.0 Percentage of Patients
Incidence of angina pectoris ([1]; 50 mg): 8.7 Percentage of Patients
Incidence of arthralgia ([1]; 50 mg): 8.7 Percentage of Patients
Incidence of coughing ([1]; 50 mg): 4.3 Percentage of Patients
Incidence of diarrhea ([1]; 50 mg): 8.7 Percentage of Patients
Incidence of dizziness ([1]; 50 mg): 13.0 Percentage of Patients
Incidence of dyspnea ([1]; 50 mg): 26.1 Percentage of Patients
Incidence of fatigue ([1]; 50 mg): 15.2 Percentage of Patients
Incidence of headache ([1]; 50 mg): 15.2 Percentage of Patients
Incidence of hyperkalemia (adverse event) ([1]; 50 mg): 15.2 Percentage of Patients
Incidence of nausea ([1]; 50 mg): 6.5 Percentage of Patients
Incidence of URT infection ([1]; 75 mg): 2.4 Percentage of Patients
Incidence of abdominal pain ([1]; 75 mg): 7.3 Percentage of Patients
Incidence of angina pectoris ([1]; 75 mg): 14.6 Percentage of Patients
Incidence of arthralgia ([1]; 75 mg): 4.9 Percentage of Patients
Incidence of coughing ([1]; 75 mg): 2.4 Percentage of Patients
Incidence of diarrhea ([1]; 75 mg): 14.6 Percentage of Patients
Incidence of dizziness ([1]; 75 mg): 17.1 Percentage of Patients
Incidence of dyspnea ([1]; 75 mg): 24.4 Percentage of Patients
Incidence of fatigue ([1]; 75 mg): 14.6 Percentage of Patients
Incidence of headache ([1]; 75 mg): 7.3 Percentage of Patients
Incidence of hyperkalemia (adverse event) ([1]; 75 mg): 19.5 Percentage of Patients
Incidence of nausea ([1]; 75 mg): 19.5 Percentage of Patients
Effect on myocardial fibrosis [2]: prevents myocardial fibrosis
Hospitalizations, number of patients ([3]; 12.5 mg): 3 Patients
Hospitalizations, percent of patients ([3]; 12.5 mg): (7.3%)
Hospitalizations, number of patients ([3]; 25 mg): 3 Patients
Hospitalizations, percent of patients ([3]; 25 mg): (6.6%)
Hospitalizations, number of patients ([3]; 50 mg): 13 Patients
Hospitalizations, percent of patients ([3]; 50 mg): (27.6%)
Hospitalizations, number of patients ([3]; 75 mg): 6 Patients
Hospitalizations, percent of patients ([3]; 75 mg): (14.6%)
Deaths within 30 days after the study was completed ([3]; patients previously at the 50 mg dose): Three patients died within 30 days after the study was completed
Change in mean systolic and diastolic blood pressure (standing and supine) ([4]; 25 mg, 50 mg and 75 mg groups, all visits): decreases in mean systolic and diastolic blood pressure
Mean change in weight from baseline to Week 12 ([4]; 50 mg/d, Week 12, with stable ACE inhibitor and loop diuretic): 0.62 (2.05)
Change from baseline in body weight, dose response ([4]; 75 mg dose group, Day 9 and Week 4): more weight loss than other patients
Control of refractory CHF (refractory CHF): effective to control refractory CHF without serious incidents of hyperkalemia
Sodium retention score, dose response ([5]; Day 9, p=0.019, not seen at later visits): higher doses showing more reduction in sodium retention score
Changes in loop diuretic therapy ([5]; Week 8, p=0.004, not observed at Week 12): more patients on the higher doses of spironolactone had decreases in the loop diuretic dose compared to the placebo group
NYHA Class ([5]; spironolactone groups vs placebo): the difference was not statistically significant
Patients in whom treatment was highly effective [6]: 13 of 16
PRA (plasma renin activity), Week 12 mean change ([7]; 12.5 mg/d): 9.90 NgAngl/L/s
PRA (plasma renin activity), Week 12 mean change ([7]; 25 mg/d): 9.33 NgAngl/L/s
PRA (plasma renin activity), Week 12 mean change ([7]; 50 mg/d): 13.18 NgAngl/L/s
PRA (plasma renin activity), Week 12 mean change ([7]; 75 mg/d): 10.23 NgAngl/L/s
Change from baseline in PRA, dose response ([7]; Day 9, Week 4 and Week 12, P≦0.001): higher doses of spironolactone associated with greater increases in PRA
N-Terminal ANF change from baseline ([7]; all active treatments, all treatment visits): decreases from baseline
Change from baseline in serum potassium, dose response ([7]; all treatment period visits, p<0.001): Higher doses of spironolactone were associated with larger increases in potassium
Urinary aldosterone excretion, dose response ([7]; baseline to 12 week visit, p=0.002): Greater increases were seen at higher doses

C[C@H](CS)C(=O)N1CCC[C@H]1C(=O)O [Captopril, captopril]
Risk ratio of hyperkalemia, captopril vs other ACE-I [8]: about one-third

— patent US20030148960A1, “Combination therapy of angiotensin converting enzyme inhibitor and side-effect-reduced amount of aldosterone antagonist for treatment of cardiovascular disease” (G.D. Searle & Co., priority 1995, published 2003)
